Experimental data reported in US20110263507A1 (priority 2007, published 2011).
Values joined by “and” are separate entries in the source; they are usually repeats but may differ in a detail not shown here. Equal values may be shown once. Read-outs that look alike come from different tables or passages of the source. Where a SMILES comes first, the peptide text is derived from it. Where no end group is shown, it is not given here. [ ]: non-standard residue; d: D form. Ala(indol-4-yl) = N[C@@H](Cc1cccc2[nH]ccc12)C(=O)O; 1Nal = N[C@@H](Cc1cccc2ccccc12)C(=O)O; NMeR = CN[C@@H](CCCNC(=N)N)C(=O)O; pGlu = O=C1CC[C@@H](C(=O)O)N1; Tle = CC(C)(C)[C@H](N)C(=O)O; dOrn = NCCC[C@@H](N)C(=O)O; Orn = NCCC[C@H](N)C(=O)O; Dab = NCC[C@H](N)C(=O)O

Columns and labels:
hNTS2 = target: T1, hNTS2 (Homo sapiens, UniProt O95665); test: Radioligand competition binding with [3H]NT, membranes of CHO-K1 cells expressing hNTS2; details: for hNTS2 Selectivity: hNTS2 over hNTS1; for higher affinity at hNTS2 than the corresponding JMV peptide at mNTS2: NT33 vs JMV 510, NT51 vs JMV 509
T1 construct: expressed in transfected cells; host or cells: CHO-K1
T1 sequence (O95665 whole entry): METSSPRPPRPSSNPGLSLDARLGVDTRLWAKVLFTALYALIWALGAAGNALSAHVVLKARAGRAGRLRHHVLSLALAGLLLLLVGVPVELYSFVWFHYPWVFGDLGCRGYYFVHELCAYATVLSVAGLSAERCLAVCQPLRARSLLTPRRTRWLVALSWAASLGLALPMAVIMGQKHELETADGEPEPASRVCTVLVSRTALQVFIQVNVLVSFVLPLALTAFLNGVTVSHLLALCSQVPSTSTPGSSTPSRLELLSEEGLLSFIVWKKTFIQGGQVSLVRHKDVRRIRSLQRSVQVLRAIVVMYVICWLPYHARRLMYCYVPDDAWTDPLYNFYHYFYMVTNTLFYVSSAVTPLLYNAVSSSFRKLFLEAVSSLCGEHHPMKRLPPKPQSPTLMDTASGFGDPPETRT

hNTS1 = target: T2, hNTS1 (Homo sapiens, UniProt P30989); test: Radioligand competition binding with [3H]NT, membranes of CHO-K1 cells expressing hNTS1; details: for hNTS1 Selectivity: Table 2, hNTS1 over hNTS2
T2 construct: expressed in transfected cells; host or cells: CHO-K1
T2 sequence (P30989 whole entry): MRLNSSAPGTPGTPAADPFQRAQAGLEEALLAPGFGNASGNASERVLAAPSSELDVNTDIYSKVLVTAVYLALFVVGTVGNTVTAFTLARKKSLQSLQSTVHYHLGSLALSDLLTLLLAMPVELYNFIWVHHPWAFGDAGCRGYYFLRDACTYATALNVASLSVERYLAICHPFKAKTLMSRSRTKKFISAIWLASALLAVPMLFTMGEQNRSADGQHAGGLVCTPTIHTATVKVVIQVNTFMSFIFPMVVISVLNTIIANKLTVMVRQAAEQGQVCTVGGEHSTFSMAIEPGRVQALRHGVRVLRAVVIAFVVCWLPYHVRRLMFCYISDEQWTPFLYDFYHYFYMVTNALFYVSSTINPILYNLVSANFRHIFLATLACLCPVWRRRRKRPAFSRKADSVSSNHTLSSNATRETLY
Protocol: CHO-K1 cells that had been stably transfected separately with the hNTS1 or hNTS2 genes were cultured in 150 mm (500 cm^2) Petri plates with 35 ml of Dulbecco's modified Eagle's medium containing 100 μM minimal essential medium nonessential amino acids (Life Technologies, Inc.) supplemented with 5% (v/v) FetalClone II bovine serum product (Hyclone Labs, Logan, Utah). […] The cellular pellet (in Tris-HCl buffer) was stored at […] until the radioligand binding was performed.
For use in binding assays, crude membrane preparations were prepared by centrifugation of the cellular pellet at 35,600×g for 10 min. The supernatant was decanted and discarded, and the cellular pellet was resuspended in 1 ml of Tris-HCl buffer followed by homogenization with a Brinkmann Polytron at setting 5.5 for 15 s. Centrifugation was repeated as above, the supernatant was decanted and discarded, and the cellular pellet was resuspended in 1 ml of Tris-HCl buffer followed by homogenization. Centrifugation was repeated a third time, the supernatant was discarded, and the final cellular pellet was suspended in 0.5-2.5 ml of Tris-HCl buffer. Protein concentration of the membrane preparation was estimated by the method of Lowry et al. using bovine serum albumin as a standard.
Incubation was at 20° C. for 40 min. The assay was routinely terminated by addition of ice-cold 0.9% NaCl (5×1.5 ml), followed by rapid filtration through a GF/B filter strip that had been pretreated with 0.2% or 2% polyethyleneimine. Details of binding assays have been described previously. […] Data were analyzed using the LIGAND program.

[1] = Table 2, read-out: hNTS2 Geometric Mean ∀ SEM (equilibrium dissociation constant Kd)
[2] = read-out: hNTS1 Geometric Mean ∀ SEM (equilibrium dissociation constant Kd)

Compound | Kd (hNTS2; [1]) [nM] | hNTS1 Selectivity (hNTS1) | Kd (hNTS1; [2]) [nM] | hNTS2 Selectivity (hNTS2; Table 2) | other results
RRPYVL [NT10, [L-Val^12]NT(8-13)] | – | 0.8 | – | 1.3 | Kd (hNTS1): 11.3 ± 0.6 nM; Kd (hNTS2): 8.8 ± 0.4 nM
CC[C@H](C)[C@H](NC(=O)[C@H](Cc1ccc(O)cc1)NC(=O)[C@@H]1CCCN1C(=O)[C@@H](CCCCN)NC(=O)[C@H](N)CCCCN)C(=O)N[C@@H](CC(C)C)C(=O)O [NT20, [D-Lys^8,D-Lys^9]NT(8-13)] | – | – | – | – | Kd (hNTS2): 730 ± 60 nM
CC[C@H](C)[C@H](NC(=O)[C@H](Cc1ccc(O)cc1)NC(=O)[C@@H]1CCCN1C(=O)[C@H](CCCN)NC(=O)[C@H](CCCNC(=N)N)NC(=O)[C@@H]1CCCN1C(=O)[C@H](CCCCN)NC(=O)[C@H](CC(N)=O)NC(=O)[C@H](CCC(=O)O)NC(=O)[C@H](Cc1ccc(O)cc1)NC(=O)[C@H](CC(C)C)NC(=O)[C@@H]1CCC(=O)N1)C(=O)N[C@@H](CC(C)C)C(=O)O [NT60, [L-Orn^9]NT(1-13)] ([pGlu]LYENKPR[Orn]PYIL-OH; C-terminus assumed) | 17 ± 2 | 5.4 | 3.2 ± 0.1 | 0.2 | –
RRPYLL [NT09, [L-Leu^12]NT(8-13)] | – | 0.3 | – | 2.9 | Kd (hNTS1): 7.2 ± 0.6 nM; Kd (hNTS2): 2.4 ± 0.3 nM
CC[C@H](C)[C@H](NC(=O)[C@H](Cc1ccc(O)cc1)NC(=O)[C@@H]1CCCN1C(=O)[C@H](CCCCN)NC(=O)[C@H](N)CCCNC(=N)N)C(=O)N[C@@H](CC(C)C)C(=O)O [NT15, [D-Arg^8,L-Lys^9]NT(8-13)] (H-[dR]KPYIL-OH; N-terminus and C-terminus assumed) | – | 4.0 | – | 0.2 | Kd (hNTS1): 3.5 ± 0.5 nM; Kd (hNTS2): 18 ± 2 nM
CC[C@H](C)[C@H](NC(=O)[C@H](Cc1cccc2ccccc12)NC(=O)[C@@H]1CCCN1C(=O)[C@H](CCCNC(=N)N)NC(=O)[C@H](CCCNC(=N)N)NC(=O)[C@@H]1CCCN1C(=O)[C@H](CCCCN)NC(=O)[C@H](CC(N)=O)NC(=O)[C@H](CCC(=O)O)NC(=O)[C@H](Cc1ccc(O)cc1)NC(=O)[C@H](CC(C)C)NC(=O)[C@@H]1CCC(=O)N1)C(=O)N[C@@H](CC(C)C)C(=O)O [NT62, [L-3,1-Nal^11]NT(1-13)] ([pGlu]LYENKPRRP[1Nal]IL-OH; C-terminus assumed) | 14.2 ± 0.5 | 1.7 | 8.4 ± 0.3 | 0.6 | –
CC[C@H](C)[C@H](NC(=O)[C@H](Cc1ccc(O)cc1)NC(=O)[C@@H]1CCCN1C(=O)[C@H](CCN)NC(=O)[C@@H](N)CCN)C(=O)N[C@@H](CC(C)C)C(=O)O [NT31, [DAB^8,DAB^9]NT(8-13)] (H-[Dab][Dab]PYIL-OH; N-terminus and C-terminus assumed) | 19.5 ± 0.7 | 9.1 | 2.1 ± 0.3 | 0.1 | –
RRGYIL [NT07, [Gly^10]NT(8-13)] | – | 0.7 | – | 1.4 | Kd (hNTS1): 1380 ± 50 nM; Kd (hNTS2): 970 ± 40 nM
CC[C@H](C)[C@H](NC(=O)[C@@H](Cc1ccc2ccccc2c1)NC(=O)[C@@H]1CCCN1C(=O)[C@H](CCCNC(=N)N)NC(=O)[C@@H](N)CCCNC(=N)N)C(=O)N[C@@H](CC(C)C)C(=O)O [NT51, [D-3,2-Nal^11]NT(8-13)] | – | – | – | – | decrease in affinity at NTS2 on changing from L- to D-3,2-Nal (hNTS2; NT33 compared to NT51): < 2 fold; higher affinity at hNTS2 than the corresponding JMV peptide at mNTS2 (hNTS2): 28 fold and ~30 fold; Kd (hNTS2; text, read-out: Kd at hNTS2): 32.9 nM
CC[C@H](C)[C@H](NC(=O)[C@H](Cc1ccc(O)cc1)NC(=O)[C@@H]1CCCN1C(=O)[C@H](CCCCN)NC(=O)[C@@H](N)CCCCN)C(=O)N[C@@H](CC(C)C)C(=O)O [NT19, [L-Lys^8,L-Lys^9]NT(8-13)] | – | – | – | – | Kd (hNTS2): 2.4 ± 0.3 nM

Continued, in another order:

Kd (hNTS2; [1]) [nM] | hNTS1 Selectivity (hNTS1) | Kd (hNTS1; [2]) [nM] | hNTS2 Selectivity (hNTS2; Table 2) | Compound | other results
14 | – | – | – | CC[C@H](C)[C@H](NC(=O)[C@@H]1Cc2ccccc2CN1C(=O)[C@@H]1CCCN1C(=O)[C@H](CCCNC(=N)N)NC(=O)[C@@H](N)CCCNC(=N)N)C(=O)N[C@@H](CC(C)C)C(=O)O [NT47, [L-TIC^11]NT(8-13)] | –
2.2 ± 0.1 | 5.2 | 0.41 ± 0.03 | 0.2 | CC[C@H](C)[C@H](NC(=O)[C@H](Cc1ccc(O)cc1)NC(=O)[C@@H]1CCCN1C(=O)[C@H](CCCNC(=N)N)NC(=O)[C@@H](N)CCCN)C(=O)N[C@@H](CC(C)C)C(=O)O [NT21, [L-Orn^8]NT(8-13)] (H-[Orn]RPYIL-OH; N-terminus and C-terminus assumed) | –
380 ± 40 | 0.3 | 1300 ± 400 | 3.4 | CN[C@@H](CCCNC(=N)N)C(=O)N[C@H](CCCN)C(=O)N1CCC[C@H]1C(=O)N[C@@H](Cc1cccc2[nH]ccc12)C(=O)N[C@H](C(=O)N[C@@H](CC(C)C)C(=O)O)C(C)(C)C [NT78, [N-methyl-Arg^8,D-Orn^9,L-neo-Trp^11,tert-Leu^12]NT(8-13)] (H-[NMeR][dOrn]P[Ala(indol-4-yl)][Tle]L-OH; C-terminus assumed) | –
5.9 ± 0.2 | 3.2 | 1.9 ± 0.2 | 0.3 | CC[C@H](C)[C@H](NC(=O)[C@H](Cc1ccc(O)cc1)NC(=O)[C@@H]1CCCN1C(=O)[C@H](CCCNC(=N)N)NC(=O)[C@H](N)CCCN)C(=O)N[C@@H](CC(C)C)C(=O)O [NT22, [D-Orn^8]NT(8-13)] (H-[dOrn]RPYIL-OH; N-terminus and C-terminus assumed) | –
– | 19.1 | – | 0.1 | CC[C@H](C)[C@H](NC(=O)[C@H](Cc1ccc(O)cc1)NC(=O)[C@@H]1CCCN1C(=O)[C@H](N)CCCN)C(=O)N[C@@H](CC(C)C)C(=O)O [NT35, [D-Orn^9]NT(9-13)] (H-[dOrn]PYIL-OH; N-terminus and C-terminus assumed) | Kd (hNTS1; text, read-out: Kd at hNTS1): 550 nM; Kd (hNTS2; text b54, read-out: Kd at hNTS2): 10000 nM; Kd (hNTS2; text, read-out: Kd at hNTS2): 10500 nM
1.28 ± 0.05 | – | – | – | CC[C@H](C)[C@H](NC(=O)[C@H](Cc1cccc2ccccc12)NC(=O)[C@@H]1CCCN1C(=O)[C@H](CCCNC(=N)N)NC(=O)[C@@H](N)CCCNC(=N)N)C(=O)N[C@@H](CC(C)C)C(=O)O [NT49, [L-3,1-Nal^11]NT(8-13)] | –
1082 ± 6 | 3.0 | 360 ± 40 | 0.3 | CC[C@H](C)[C@H](NC(=O)[C@H](Cc1ccc(O)cc1)NC(=O)[C@@H]1CCCN1C(=O)[C@@H](CCCN)NC(=O)[C@@H](N)CCCN)C(=O)N[C@@H](CC(C)C)C(=O)O [NT26, [L-Orn^8,D-Orn^9]NT(8-13)] | –
6.5 ± 0.3 | 5.6 | 1.2 ± 0.1 | 0.2 | CC[C@H](C)[C@H](NC(=O)[C@H](Cc1ccc(O)cc1)NC(=O)[C@@H]1CCCN1C(=O)[C@H](CCCNC(=N)N)NC(=O)[C@@H](N)CCN)C(=O)N[C@@H](CC(C)C)C(=O)O [NT29, [DAB^8]NT(8-13)] (H-[Dab]RPYIL-OH; N-terminus and C-terminus assumed) | –
1900 ± 100 | 3.2 | 600 ± 20 | 0.3 | CC[C@H](C)[C@H](NC(=O)[C@H](Cc1ccc(O)cc1)NC(=O)[C@@H]1CCCN1C(=O)[C@@H](CCCN)NC(=O)[C@H](N)CCCN)C(=O)N[C@@H](CC(C)C)C(=O)O [NT28, [D-Orn^8,D-Orn^9]NT(8-13)] | –
8 ± 0.4 | 0.5 | 17 ± 2 | 2.2 | CC[C@H](C)[C@H](NC(=O)[C@H](Cc1c[nH]c2ccccc12)NC(=O)[C@@H]1CCCN1C(=O)[C@H](CCCNC(=N)N)NC(=O)[C@H](N)CCCCN)C(=O)N[C@@H](CC(C)C)C(=O)O [NT67T, [D-Lys^8,L-Trp^11]NT(8-13)] (H-[dK]RPWIL-OH; N-terminus and C-terminus assumed) | –
1190 ± 40 | 4.0 | 300 ± 50 | 0.3 | CC[C@H](C)[C@H](NC(=O)[C@H](Cc1ccc(O)cc1)NC(=O)[C@@H]1CCCN1C(=O)[C@@H](N)CCCN)C(=O)N[C@@H](CC(C)C)C(=O)O [NT34, [L-Orn^9]NT(9-13)] (H-[Orn]PYIL-OH; N-terminus and C-terminus assumed) | –
18 ± 1 | – | – | – | CC[C@H](C)[C@H](NC(=O)[C@H](Cc1ccc2ccccc2c1)NC(=O)[C@@H]1CCCN1C(=O)[C@H](CCCNC(=N)N)NC(=O)[C@@H](N)CCCNC(=N)N)C(=O)N[C@@H](CC(C)C)C(=O)O [NT33, [L-3,2-Nal^11]NT(8-13)] | higher affinity at hNTS2 than the corresponding JMV peptide at mNTS2 (hNTS2): 12 fold
255 | – | – | – | CC[C@H](C)[C@H](NC(=O)[C@H]1Cc2ccccc2CN1C(=O)[C@@H]1CCCN1C(=O)[C@H](CCCNC(=N)N)NC(=O)[C@@H](N)CCCNC(=N)N)C(=O)N[C@@H](CC(C)C)C(=O)O [NT48, [D-TIC^11]NT(8-13)] | –
